Data as given in PubChem BioAssay (NCI).
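Interpolation was linear, between the two tested concentrations surrounding the appropriate level; five concentrations were tested over 48 hours in 96-well plates. Definition used: TGI = concentration required for complete inhibition of growth.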

Experiments:
Assay in all cases: NCI-60 cell line screen, 48 h
UACC-62 melanoma = test system: UACC-62 melanoma
HT29 colon = test system: HT29 colon
MOLT-4 leukemia = test system: MOLT-4 leukemia
OVCAR-3 ovarian = test system: OVCAR-3 ovarian
MDA-MB-231 breast = test system: MDA-MB-231 breast
IGROV1 ovarian = test system: IGROV1 ovarian
LOX IMVI melanoma = test system: LOX IMVI melanoma
MCF7 breast = test system: MCF7 breast
SF-295 CNS = test system: SF-295 CNS
HCC-2998 colon = test system: HCC-2998 colon
MDA-MB-435 = test system: MDA-MB-435
BT-549 breast = test system: BT-549 breast
HCT-116 colon = test system: HCT-116 colon
COLO 205 colon = test system: COLO 205 colon
TK-10 renal = test system: TK-10 renal
OVCAR-4 ovarian = test system: OVCAR-4 ovarian
DU-145 prostate = test system: DU-145 prostate
KM12 colon = test system: KM12 colon
NCI-H23 lung = test system: NCI-H23 lung
SR leukemia = test system: SR leukemia
SNB-19 CNS = test system: SNB-19 CNS
CAKI-1 renal = test system: CAKI-1 renal
NCI-H226 lung = test system: NCI-H226 lung
EKVX NSCLC = test system: EKVX NSCLC
M14 melanoma = test system: M14 melanoma
RXF 393 renal = test system: RXF 393 renal
CCRF-CEM leukemia = test system: CCRF-CEM leukemia
786-0 renal = test system: 786-0 renal
MALME-3M melanoma = test system: MALME-3M melanoma
RPMI-8226 leukemia = test system: RPMI-8226 leukemia
OVCAR-8 ovarian = test system: OVCAR-8 ovarian
T-47D breast = test system: T-47D breast
UACC-257 melanoma = test system: UACC-257 melanoma
MDA-N = test system: MDA-N
NCI/ADR-RES ovarian = test system: NCI/ADR-RES ovarian
HL-60(TB) leukemia = test system: HL-60(TB) leukemia
HOP-92 NSCLC = test system: HOP-92 NSCLC
NCI-H522 lung = test system: NCI-H522 lung
SK-MEL-2 melanoma = test system: SK-MEL-2 melanoma
SNB-75 CNS = test system: SNB-75 CNS
SF-268 CNS = test system: SF-268 CNS
ACHN renal = test system: ACHN renal
SN12C renal = test system: SN12C renal
NCI-H460 lung = test system: NCI-H460 lung
OVCAR-5 ovarian = test system: OVCAR-5 ovarian
HCT-15 colon = test system: HCT-15 colon
SW-620 colon = test system: SW-620 colon
UO-31 renal = test system: UO-31 renal
A549 NSCLC = test system: A549 NSCLC
HOP-62 NSCLC = test system: HOP-62 NSCLC
SK-OV-3 ovarian = test system: SK-OV-3 ovarian
U251 CNS = test system: U251 CNS
PC-3 prostate = test system: PC-3 prostate
SF-539 CNS = test system: SF-539 CNS
HS 578T breast = test system: HS 578T breast
SK-MEL-28 melanoma = test system: SK-MEL-28 melanoma
SK-MEL-5 melanoma = test system: SK-MEL-5 melanoma

Measured: TGI

N#CC(NCCc1ccccc1)c1ccccc1 (configuration not stated)
> 100 µM: all assays above
